{"source": "ChEMBL document CHEMBL5729210", "about": "“Benzodiazepine derivatives as RSV inhibitors” (2022)"}
{"experiment": "RSV-A Assay: The description is Japanese."}
{"smiles": "COCCOC(=O)c1nc2ccccc2n1CCOC", "EC50": "> 800 nM"}
{"smiles": "O=C1Nc2ccccc2C(c2ccccc2)=N[C@@H]1Nc1nnc(-c2ncc(C3CC3)cc2N2CC3CCC(C2)O3)o1", "EC50": "< 400 nM"}
{"smiles": "C#Cc1cnc(-c2nnc(N[C@H]3N=C(c4ccccc4)c4ccccc4NC3=O)o2)c(N2CCOCC2)c1", "EC50": "< 400 nM"}
{"smiles": "COCCOc1cc(C#N)ccc1-c1nnc(N[C@H]2N=C(c3ccccc3)c3ccccc3NC2=O)o1", "EC50": "< 400 nM"}
{"smiles": "CN1CCN(c2cc(C(F)(F)F)cnc2-c2nnc(N[C@H]3N=C(c4ccccc4)c4ccccc4NC3=O)o2)CC1=O", "EC50": "> 800 nM"}
{"smiles": "CCOC(=O)c1ncc(N2CCCC2)cc1N1CCOCC1", "EC50": "< 400 nM"}
{"smiles": "Cc1noc(C)c1-c1cc(C#N)ccc1-c1nnc(N[C@H]2N=C(c3ccccc3)c3ccccc3NC2=O)o1", "EC50": "> 800 nM"}
{"smiles": "N#Cc1ccc(-c2nnc(N[C@H]3N=C(c4ccccc4)c4ccccc4NC3=O)o2)c(-c2ccoc2)c1", "EC50": "> 800 nM"}
{"smiles": "CN(CC(C)(C)O)c1cc(C(F)(F)F)cnc1-c1nnc(N[C@H]2N=C(c3ccccc3)c3ccccc3NC2=O)o1", "EC50": "> 800 nM"}
{"smiles": "O=C1Nc2ccccc2C(c2ccccc2)=N[C@@H]1Nc1nnc(-c2nc3ccccc3cc2N2CCOCC2)o1", "EC50": "< 400 nM"}
{"smiles": "CN(C)c1cc(C(F)(F)F)cnc1-c1nnc(N[C@H]2N=C(c3ccccc3)c3ccccc3NC2=O)o1", "EC50": "> 800 nM"}
{"smiles": "COCCn1nccc1-c1nnc(N[C@H]2N=C(c3ccccc3)c3ccccc3NC2=O)o1", "EC50": "> 800 nM"}
{"smiles": "O=C1Nc2ccccc2C(c2ccccc2)=N[C@@H]1Nc1nnc(-c2ncc(C3=CCCCC3)cc2N2CCOCC2)o1", "EC50": "in the range around 600 nM"}
{"smiles": "C[C@@H]1COCCN1c1cc(C#N)cnc1-c1nnc(N[C@H]2N=C(c3ccccc3)c3ccccc3NC2=O)o1", "EC50": "< 400 nM"}
{"smiles": "COCCn1ccnc1-c1nnc(N[C@H]2N=C(c3ccccc3)c3ccccc3NC2=O)o1", "EC50": "> 800 nM"}
{"smiles": "O=C1Nc2ccccc2C(c2ccccc2)=N[C@@H]1Nc1nnc(-c2ncc(F)cc2N2CC3CCC(C2)O3)o1", "EC50": "< 400 nM"}
{"smiles": "O=C1Nc2ccccc2C(c2ccccc2)=N[C@@H]1Nc1nnc(-c2cnc(C(F)(F)F)nc2N2CC3CCC(C2)O3)o1", "EC50": "> 800 nM"}
{"smiles": "O=C1Nc2ccccc2C(c2ccccc2)=N[C@@H]1Nc1nnc(-c2ncc3ccccc3c2N2CCOCC2)o1", "EC50": "> 800 nM"}
{"smiles": "N#Cc1c[nH]c2cc(-c3nnc(N[C@H]4N=C(c5ccccc5)c5ccccc5NC4=O)o3)ccc12", "EC50": "> 800 nM"}
{"smiles": "O=C1Nc2ccccc2C(c2ccccc2)=N[C@@H]1Nc1nnc(-c2ncc(C(F)(F)F)cc2C2CC2)o1", "EC50": "> 800 nM"}
{"smiles": "N#Cc1cc(N2CCOCC2)c(-c2nnc(N[C@H]3N=C(c4ccccc4)c4ccccc4NC3=O)o2)s1", "EC50": "< 400 nM"}
{"smiles": "N#Cc1cnc(-c2nnc(N[C@H]3N=C(c4ccccc4)c4ccccc4NC3=O)o2)c(N2CC3CCC(C2)O3)c1", "EC50": "< 400 nM"}
{"smiles": "COc1ccc(-c2nnc(N[C@H]3N=C(c4ccccc4)c4ccccc4NC3=O)o2)c(N2CCOCC2)n1", "EC50": "< 400 nM"}
{"smiles": "C[C@@H]1COCCN1c1cc(C(F)(F)F)cnc1-c1nnc(N[C@H]2N=C(c3ccccc3)c3ccccc3NC2=O)o1", "EC50": "< 400 nM"}
{"smiles": "N#CCCNc1cc(C(F)(F)F)cnc1-c1nnc(N[C@H]2N=C(c3ccccc3)c3ccccc3NC2=O)o1", "EC50": "< 400 nM"}
{"smiles": "O=C1Nc2ccccc2C(c2ccccc2)=N[C@@H]1Nc1nnc(-c2ncc(C3CCCCC3)cc2N2CCOCC2)o1", "EC50": "< 400 nM"}
{"smiles": "COCCNc1cc(C(F)(F)F)cnc1-c1nnc(N[C@H]2N=C(c3ccccc3)c3ccccc3NC2=O)o1", "EC50": "< 400 nM"}
{"smiles": "Cn1cc(-c2cc(C#N)cnc2-c2nnc(N[C@H]3N=C(c4ccccc4)c4ccccc4NC3=O)o2)ccc1=O", "EC50": "> 800 nM"}
{"smiles": "O=C1Nc2ccccc2C(c2ccccc2)=N[C@@H]1Nc1nnc(-c2nc(C3CC3)ccc2N2CCOCC2)o1", "EC50": "< 400 nM"}
{"smiles": "CNc1cc(C(F)(F)F)cnc1-c1nnc(N[C@H]2N=C(c3ccccc3)c3ccccc3NC2=O)o1", "EC50": "> 800 nM"}
{"smiles": "CC(C)(O)CNc1cc(C(F)(F)F)cnc1-c1nnc(N[C@H]2N=C(c3ccccc3)c3ccccc3NC2=O)o1", "EC50": "< 400 nM"}
{"smiles": "COC(=O)c1ccc(N2CCCC2)cc1N1CCOCC1", "EC50": "< 400 nM"}
{"smiles": "O=C1Nc2ccccc2C(c2ccccc2)=N[C@@H]1Nc1nnc(-c2nnsc2N2CCOCC2)o1", "EC50": "< 400 nM"}
{"smiles": "N#Cc1ccc(-c2nnc(N[C@H]3N=C(c4ccccc4)c4ccccc4NC3=O)o2)c(-c2ccsc2)c1", "EC50": "> 800 nM"}
